Results published in patent publication US9884865B2, “Azaspiro[4.5] decane derivatives and use thereof” (Purdue Pharma L.P., priority 2013, dated 2018).

Key:
human Nav1.7 [1] = target: T1, human Nav1.7 (Homo sapiens (Human), UniProt Q15858); test: FLIPR membrane potential dye assay (alternative fluorescence assay); format: cell-based
human Nav1.7 [2] = target: T1, human Nav1.7; test: FLIPR sodium dye assay (CoroNa Green AM Na+ dye, primary fluorescence assay); format: cell-based; conditions: recombinant human Nav1.7 in HEK293

T1 sequence (Q15858 other isoform, or with tags, fused parts or gaps): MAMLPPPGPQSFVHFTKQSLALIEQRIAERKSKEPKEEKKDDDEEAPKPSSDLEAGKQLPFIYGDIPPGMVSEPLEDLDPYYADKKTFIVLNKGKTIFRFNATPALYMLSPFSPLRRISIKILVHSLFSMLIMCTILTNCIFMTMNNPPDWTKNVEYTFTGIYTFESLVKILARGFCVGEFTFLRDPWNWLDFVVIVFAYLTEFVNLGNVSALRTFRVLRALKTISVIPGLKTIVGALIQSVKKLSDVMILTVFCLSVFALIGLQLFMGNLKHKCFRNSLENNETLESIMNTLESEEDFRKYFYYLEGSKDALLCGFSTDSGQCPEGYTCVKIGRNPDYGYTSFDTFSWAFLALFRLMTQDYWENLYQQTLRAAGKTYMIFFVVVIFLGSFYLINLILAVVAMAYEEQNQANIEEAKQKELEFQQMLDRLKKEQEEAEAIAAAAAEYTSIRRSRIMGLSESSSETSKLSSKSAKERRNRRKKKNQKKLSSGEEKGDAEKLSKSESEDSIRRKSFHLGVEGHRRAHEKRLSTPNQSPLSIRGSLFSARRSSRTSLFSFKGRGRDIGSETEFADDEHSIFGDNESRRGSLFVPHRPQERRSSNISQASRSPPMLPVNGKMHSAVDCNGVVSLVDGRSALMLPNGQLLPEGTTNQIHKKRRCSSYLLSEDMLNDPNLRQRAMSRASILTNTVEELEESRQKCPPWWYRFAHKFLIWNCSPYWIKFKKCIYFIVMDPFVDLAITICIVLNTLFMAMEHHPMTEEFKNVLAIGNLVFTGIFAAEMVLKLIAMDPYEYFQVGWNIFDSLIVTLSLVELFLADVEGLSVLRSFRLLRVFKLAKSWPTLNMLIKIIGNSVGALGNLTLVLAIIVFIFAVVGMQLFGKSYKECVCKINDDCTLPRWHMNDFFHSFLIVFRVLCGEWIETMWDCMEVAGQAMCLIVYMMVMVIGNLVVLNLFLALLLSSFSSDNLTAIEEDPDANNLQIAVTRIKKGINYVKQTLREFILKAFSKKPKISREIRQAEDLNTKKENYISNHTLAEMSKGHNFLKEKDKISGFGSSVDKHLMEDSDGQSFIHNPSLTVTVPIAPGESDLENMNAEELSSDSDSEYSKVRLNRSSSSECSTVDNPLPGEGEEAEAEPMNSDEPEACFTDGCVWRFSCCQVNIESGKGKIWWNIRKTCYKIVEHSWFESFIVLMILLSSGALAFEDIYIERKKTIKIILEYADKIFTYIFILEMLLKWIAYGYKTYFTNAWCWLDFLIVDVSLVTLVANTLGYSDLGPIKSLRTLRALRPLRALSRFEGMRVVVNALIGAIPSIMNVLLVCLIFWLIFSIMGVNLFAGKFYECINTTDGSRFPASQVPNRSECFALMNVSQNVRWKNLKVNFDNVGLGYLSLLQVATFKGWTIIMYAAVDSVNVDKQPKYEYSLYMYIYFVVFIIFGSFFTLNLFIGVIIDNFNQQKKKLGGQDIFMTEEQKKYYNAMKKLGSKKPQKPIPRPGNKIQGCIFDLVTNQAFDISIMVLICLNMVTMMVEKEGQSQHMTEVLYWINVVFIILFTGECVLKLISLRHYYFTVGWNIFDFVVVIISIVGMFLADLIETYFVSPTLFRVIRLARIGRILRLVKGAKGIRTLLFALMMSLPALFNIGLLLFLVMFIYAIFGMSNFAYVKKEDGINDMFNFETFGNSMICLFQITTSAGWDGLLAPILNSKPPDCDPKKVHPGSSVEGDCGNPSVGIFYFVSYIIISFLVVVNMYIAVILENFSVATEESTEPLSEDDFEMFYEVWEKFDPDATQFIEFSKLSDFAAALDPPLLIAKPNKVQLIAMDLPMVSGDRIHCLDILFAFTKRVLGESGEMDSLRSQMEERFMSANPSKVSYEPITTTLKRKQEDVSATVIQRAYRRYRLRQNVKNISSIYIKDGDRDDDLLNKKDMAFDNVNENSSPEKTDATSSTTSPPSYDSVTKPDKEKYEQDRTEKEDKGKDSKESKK

IC50 (human Nav1.7 [1]) [nM]	IC50 (human Nav1.7 [2]) [µM]	SMILES
1270 ± 380	–	O=C1NC(=O)C2(CCN(c3ccc(Oc4cccc(C(F)(F)F)c4)cc3)CC2)N1 [Compound 14, 8-(4-(3-(Trifluoromethyl)phenoxy)phenyl)-1,3,8-triazaspiro[4.5]decane-2,4-dione]
872 ± 117	–	O=C1NC(=O)C2(CCN(c3cc(-c4ccc(OC(F)(F)F)cc4)ccn3)CC2)N1 [Compound 15, 8-(4-(4-(trifluoromethoxy)phenyl)pyridin-2-yl)-1,3,8-triazaspiro[4.5]decane-2,4-dione]
> 20000	–	O=C1NC(=O)C2(CCN(c3ccc(Oc4ccc(F)cc4)cc3)CC2)N1 [Compound 12, 8-(4-(4-Fluorophenoxy)phenyl)-1,3,8-triazaspiro[4.5]decane-2,4-dione]
> 20000	–	O=C1NC(=O)C2(CCN(c3ncccc3Oc3ccc(F)cc3)CC2)N1 [Compound 20, 8-(3-(4-Fluorophenoxy)pyridin-2-yl)-1,3,8-triazaspiro[4.5]decane-2,4-dione]
1440 ± 492	–	O=C1NC(=O)C2(CCN(c3ccc(Oc4cccc(C(F)(F)F)c4)cn3)CC2)N1 [Compound 18, 8-(5-(3-(trifluoromethyl)phenoxy)-pyridin-2-yl)-1,3,8-triazaspiro[4.5]decane-2,4-dione]
–	3.92 ± 0.466	NC(=O)c1cc(N[C@H]2CCNC2=O)nc(N2CCC3(CC2)OCc2ccccc23)n1 [Compound 8, (S)-6-((2-oxopyrrolidin-3-yl)amino)-2-(3H-spiro[isobenzofuran-1,4′-piperidin]-1′-yl)pyrimidine-4-carboxamide]
1730 ± 649	–	O=C1NC(=O)C2(CCN(c3ccc(Oc4ccc(C(F)(F)F)cc4)cn3)CC2)N1 [Compound 17, 8-(5-(4-(trifluoromethyl)phenoxy)pyridin-2-yl)-1,3,8-triazaspiro[4.5]decane-2,4-dione]
–	1.3 ± 0.124	NC(=O)c1cc(N[C@H]2CCNC2=O)nc(N2CCC3(C=Cc4ccccc43)CC2)n1 [Compound 9, (S)-6-((2-oxopyrrolidin-3-yl)amino)-2-(spiro[indene-1,4′-piperidin]-1′-yl)pyrimidine-4-carboxamide]

Continued, molecule first:

SMILES	IC50 (human Nav1.7 [1]) [nM]	IC50 (human Nav1.7 [2]) [µM]
NC(=O)c1cc(N[C@H]2CCNC2=O)nc(N2CCC3(CC2)C(=O)NCN3c2ccccc2)n1 [Compound 11, (S)-2-(4-oxo-1-phenyl-1,3,8-triazaspiro[4.5]decan-8-yl)-6-((2-oxopyrrolidin-3-yl)amino)pyrimidine-4-carboxamide]	–	> 20
NC(=O)c1cc(N[C@H]2CCNC2=O)nc(N2CCC3(CC2)OC(=O)c2ccccc23)n1 [Compound 10, (S)-2-(3-oxo-3H-spiro [isobenzofuran-1,4′-piperidin]-1′-yl)-6-((2-oxopyrrolidin-3-yl)amino)pyrimidine-4-carboxamide]	–	3.86 ± 0.39
O=C1NC(=O)C2(CCN(c3cc(-c4cccc(OC(F)(F)F)c4)ccn3)CC2)N1 [Compound 21, 8-(4-(3-(Trifluoromethoxy)phenyl)pyridin-2-yl)-1,3,8-triazaspiro[4.5]decane-2,4-dione]	1980 ± 309	–
O=C1NC(=O)C2(CCN(c3ccc(Oc4ccc(C(F)(F)F)cc4)cc3)CC2)N1 [Compound 19, 8-(4-(4-(trifluoromethyl)phenoxy)phenyl)-1,3,8-triazaspiro[4.5]decane-2,4-dione]	> 20000	–
O=C1NC(=O)C2(CCN(c3ccc(Oc4cccc(F)c4)cc3)CC2)N1 [Compound 13, 8-(4-(3-Fluorophenoxy)phenyl)-1,3,8-triazaspiro[4.5]decane-2,4-dione]	1540 ± 223	–
O=C1NC(=O)C2(CCN(c3ccc(Oc4ccc(F)cc4)cn3)CC2)N1 [Compound 16, 8-(5-(4-Fluorophenoxy)pyridin-2-yl)-1,3,8-triazaspiro[4.5]decane-2,4-dione]	4480 ± 1040	–
